# Reference: patent US20230049952A1, “METHODS AND COMPOUNDS FOR RESTORING MUTANT P53 FUNCTION” (PMV Pharmaceuticals, Inc., priority 2020, published 2023)
# Test system: NF-κB signaling pathway in MT373 tumors
# Assay: MT373 syngeneic sarcoma model: mouse NF-κB signaling pathway profiling panel
# Type: in vivo
# Conditions: for Ccl2 mRNA downregulation / Csf2 mRNA downregulation / Egfr mRNA downregulation / Fas1 mRNA downregulation / Ifnγ mRNA downregulation / Il1α mRNA downregulation / Il1β mRNA downregulation: 150 mg/kg BID×1
structure (smiles),measurement,setting,value
"CCn1c(C#CCNc2ccccc2)cc2cc(CNC3CCN(C)CC3)ccc21 [Compound 1, 1-Anilino-3-{1-ethyl-5-[(1-methyl-4-piperidylamino)methyl]-1H-indol-2-yl}-2-propyne]",Ccl5 fold increase over or percent reduction vs vehicle control,"150 mg/kg BIDx1, […]",2.85 ± 0.20 fold or %
same,Cd27 fold increase over or percent reduction vs vehicle control,"150 mg/kg BIDx1, […]",1.48 ± 0.16 fold or %
same,Cd40 fold increase over or percent reduction vs vehicle control,"150 mg/kg BIDx1, […]",1.78 ± 0.80 fold or %
same,Cflar fold increase over or percent reduction vs vehicle control,"150 mg/kg BIDx1, […]",6.22 ± 11.55 fold or %
same,Chuk fold increase over or percent reduction vs vehicle control,"150 mg/kg BIDx1, […]",1.16 ± 0.33 fold or %
same,Crebbp fold increase over or percent reduction vs vehicle control,"150 mg/kg BIDx1, […]",16.61 ± 5.43 fold or %
same,Csf1 fold increase over or percent reduction vs vehicle control,"150 mg/kg BIDx1, […]",1.10 ± 0.10 fold or %
same,Csf2 fold increase over or percent reduction vs vehicle control,"150 mg/kg BIDx1, […]",2.00 ± 1.31 fold or %
same,Csf3 fold increase over or percent reduction vs vehicle control,"150 mg/kg BIDx1, […]",52.98 ± 22.53 fold or %
same,Egfr fold increase over or percent reduction vs vehicle control,"150 mg/kg BIDx1, […]",41.90 ± 8.16 fold or %
same,Egr1 fold increase over or percent reduction vs vehicle control,"150 mg/kg BIDx1, […]",54.35 ± 3.91 fold or %
same,Eif2ak2 fold increase over or percent reduction vs vehicle control,"150 mg/kg BIDx1, […]",18.72 ± 7.21 fold or %
same,Elk1 fold increase over or percent reduction vs vehicle control,"150 mg/kg BIDx1, […]",7.14 ± 8.40 fold or %
same,F2r fold increase over or percent reduction vs vehicle control,"150 mg/kg BIDx1, […]",1.01 ± 0.12 fold or %
same,Fadd fold increase over or percent reduction vs vehicle control,"150 mg/kg BIDx1, […]",5.68 ± 5.62 fold or %
same,Fasl fold increase over or percent reduction vs vehicle control,"150 mg/kg BIDx1, […]",3.17 ± 0.74 fold or %
same,Fos fold increase over or percent reduction vs vehicle control,"150 mg/kg BIDx1, […]",44.44 ± 21.93 fold or %
same,Hmox1 fold increase over or percent reduction vs vehicle control,"150 mg/kg BIDx1, […]",40.88 ± 33.56 fold or %
same,Icam1 fold increase over or percent reduction vs vehicle control,"150 mg/kg BIDx1, […]",1.41 ± 0.25 fold or %
same,Ifng fold increase over or percent reduction vs vehicle control,"150 mg/kg BIDx1, […]",3.22 ± 0.99 fold or %
same,Ikbkb fold increase over or percent reduction vs vehicle control,"150 mg/kg BIDx1, […]",6.97 ± 8.47 fold or %
same,Ikbke fold increase over or percent reduction vs vehicle control,"150 mg/kg BIDx1, […]",0.36 ± 10.26 fold or %
same,Ikbkg fold increase over or percent reduction vs vehicle control,"150 mg/kg BIDx1, […]",9.50 ± 15.53 fold or %
same,Il1a fold increase over or percent reduction vs vehicle control,"150 mg/kg BIDx1, […]",1.02 ± 0.18 fold or %
same,Il1b fold increase over or percent reduction vs vehicle control,"150 mg/kg BIDx1, […]",1.39 ± 0.34 fold or %
same,Il1r1 fold increase over or percent reduction vs vehicle control,"150 mg/kg BIDx1, […]",28.14 ± 8.59 fold or %
same,Il10 fold increase over or percent reduction vs vehicle control,"150 mg/kg BIDx1, […]",34.39 ± 10.47 fold or %
same,Irak1 fold increase over or percent reduction vs vehicle control,"150 mg/kg BIDx1, […]",5.30 ± 10.81 fold or %
same,Irak2 fold increase over or percent reduction vs vehicle control,"150 mg/kg BIDx1, […]",1.05 ± 0.12 fold or %
same,Irf1 fold increase over or percent reduction vs vehicle control,"150 mg/kg BIDx1, […]",1.11 ± 0.14 fold or %
same,Jun fold increase over or percent reduction vs vehicle control,"150 mg/kg BIDx1, […]",26.73 ± 6.02 fold or %
same,Lta fold increase over or percent reduction vs vehicle control,"150 mg/kg BIDx1, […]",1.87 ± 0.82 fold or %
same,Ltbr fold increase over or percent reduction vs vehicle control,"150 mg/kg BIDx1, […]",1.13 ± 0.10 fold or %
same,Map3k1 fold increase over or percent reduction vs vehicle control,"150 mg/kg BIDx1, […]",16.75 ± 8.45 fold or %
same,Mapk3 fold increase over or percent reduction vs vehicle control,"150 mg/kg BIDx1, […]",19.93 ± 6.52 fold or %
same,Myd88 fold increase over or percent reduction vs vehicle control,"150 mg/kg BIDx1, […]",9.52 ± 8.80 fold or %
same,Nfkb1 fold increase over or percent reduction vs vehicle control,"150 mg/kg BIDx1, […]",5.72 ± 2.88 fold or %
same,Nfkb2 fold increase over or percent reduction vs vehicle control,"150 mg/kg BIDx1, […]",1.01 ± 0.10 fold or %
same,Nfkbia fold increase over or percent reduction vs vehicle control,"150 mg/kg BIDx1, […]",8.21 ± 16.85 fold or %
same,Nod1 fold increase over or percent reduction vs vehicle control,"150 mg/kg BIDx1, […]",0.36 ± 14.65 fold or %
same,Raf1 fold increase over or percent reduction vs vehicle control,"150 mg/kg BIDx1, […]",7.66 ± 4.64 fold or %
same,Rel fold increase over or percent reduction vs vehicle control,"150 mg/kg BIDx1, […]",4.74 ± 2.26 fold or %
same,Rela fold increase over or percent reduction vs vehicle control,"150 mg/kg BIDx1, […]",20.75 ± 9.37 fold or %
same,Relb fold increase over or percent reduction vs vehicle control,"150 mg/kg BIDx1, […]",14.05 ± 6.91 fold or %
same,Ripk1 fold increase over or percent reduction vs vehicle control,"150 mg/kg BIDx1, […]",2.92 ± 15.10 fold or %
same,Ripk2 fold increase over or percent reduction vs vehicle control,"150 mg/kg BIDx1, […]",1.11 ± 0.29 fold or %
same,Slc20a1 fold increase over or percent reduction vs vehicle control,"150 mg/kg BIDx1, […]",20.53 ± 3.61 fold or %
same,Smad3 fold increase over or percent reduction vs vehicle control,"150 mg/kg BIDx1, […]",0.01 ± 11.30 fold or %
same,Stat1 fold increase over or percent reduction vs vehicle control,"150 mg/kg BIDx1, […]",1.20 ± 0.33 fold or %
same,Tbk1 fold increase over or percent reduction vs vehicle control,"150 mg/kg BIDx1, […]",1.03 ± 0.18 fold or %
same,Tlr1 fold increase over or percent reduction vs vehicle control,"150 mg/kg BIDx1, […]",1.33 ± 0.37 fold or %
same,Tlr2 fold increase over or percent reduction vs vehicle control,"150 mg/kg BIDx1, […]",1.05 ± 0.08 fold or %
same,Tlr3 fold increase over or percent reduction vs vehicle control,"150 mg/kg BIDx1, […]",1.02 ± 0.15 fold or %
same,Tlr4 fold increase over or percent reduction vs vehicle control,"150 mg/kg BIDx1, […]",1.04 ± 0.09 fold or %
same,Tlr6 fold increase over or percent reduction vs vehicle control,"150 mg/kg BIDx1, […]",0.43 ± 6.189 fold or %
same,Tlr9 fold increase over or percent reduction vs vehicle control,"150 mg/kg BIDx1, […]",1.29 ± 0.19 fold or %
same,Tnf fold increase over or percent reduction vs vehicle control,"150 mg/kg BIDx1, […]",1.12 ± 0.27 fold or %
same,Tnfaip3 fold increase over or percent reduction vs vehicle control,"150 mg/kg BIDx1, […]",11.08 ± 10.07 fold or %
same,Tnfrsf1a fold increase over or percent reduction vs vehicle control,"150 mg/kg BIDx1, […]",17.69 ± 12.43 fold or %
same,Tnfrsf1b fold increase over or percent reduction vs vehicle control,"150 mg/kg BIDx1, […]",1.08 ± 0.19 fold or %
same,Tnfrsf10b fold increase over or percent reduction vs vehicle control,"150 mg/kg BIDx1, […]",1.19 ± 15.33 fold or %
same,Tnfsf10 fold increase over or percent reduction vs vehicle control,"150 mg/kg BIDx1, […]",1.18 ± 0.41 fold or %
same,Tnfsf14 fold increase over or percent reduction vs vehicle control,"150 mg/kg BIDx1, […]",1.09 ± 0.34 fold or %
same,Tollip fold increase over or percent reduction vs vehicle control,"150 mg/kg BIDx1, […]",13.73 ± 7.04 fold or %
same,Tradd fold increase over or percent reduction vs vehicle control,"150 mg/kg BIDx1, […]",1.02 ± 0.22 fold or %
same,Traf2 fold increase over or percent reduction vs vehicle control,"150 mg/kg BIDx1, […]",1.01 ± 0.11 fold or %
same,Traf3 fold increase over or percent reduction vs vehicle control,"150 mg/kg BIDx1, […]",17.66 ± 4.06 fold or %
same,Traf5 fold increase over or percent reduction vs vehicle control,"150 mg/kg BIDx1, […]",1.10 ± 0.12 fold or %
same,Traf6 fold increase over or percent reduction vs vehicle control,"150 mg/kg BIDx1, […]",12.35 ± 5.34 fold or %
same,Zap70 fold increase over or percent reduction vs vehicle control,"150 mg/kg BIDx1, […]",2.40 ± 0.39 fold or %
same,Ccl2 mRNA downregulation,24 h,57.69%
same,Csf2 mRNA downregulation,24 h,61.29%
same,Egfr mRNA downregulation,24 h,28.45%
same,Fas1 mRNA downregulation,24 h,31.85%
same,Ifnγ mRNA downregulation,24 h,35.82%
same,Il1α mRNA downregulation,24 h,13.50%
same,Il1β mRNA downregulation,24 h,63.25%
same,Ccl2 mRNA downregulation,48 h,67.28%
same,Csf2 mRNA downregulation,48 h,62.24%
same,Egfr mRNA downregulation,48 h,24.42%
same,Ifnγ mRNA downregulation,48 h,43.46%
same,Il1α mRNA downregulation,48 h,28.88%
same,Il1β mRNA downregulation,48 h,18.73%
same,Ccl2 mRNA downregulation,72 h,52.53%
same,Fas1 mRNA downregulation,72 h,42.85%
same,Ifnγ mRNA downregulation,72 h,22.04%
same,Il1α mRNA downregulation,72 h,63.60%
same,Il1β mRNA downregulation,72 h,84.09%
same,Egfr mRNA downregulation,[…],41.90%
